Assay results as given in article PMC10354055, “An optimized Nurr1 agonist provides disease-modifying effects in Parkinson’s disease models” (Nature Communications, 2023).
Where “and” joins values, the source holds several entries; their conditions need not be identical. Equal entries are not always repeated.

Key:
[1] = target: T1, Nor1 (Homo sapiens, UniProt Q92570); experiment: Luciferase reporter assay, Nor1 LBD, SK-N-BE(2)C cells; assay type: cell-based; settings: Fig. 1f; CQ 100 µM, 4A7C-301 20 µM, PGA1 10 µM
T1 construct: using LBD of NR4A subfamily members in SK-N-BE(2)C cells; expressed in transfected cells; host or cells: SK-N-BE(2)C
T1 sequence (Q92570 394-623 limits assumed): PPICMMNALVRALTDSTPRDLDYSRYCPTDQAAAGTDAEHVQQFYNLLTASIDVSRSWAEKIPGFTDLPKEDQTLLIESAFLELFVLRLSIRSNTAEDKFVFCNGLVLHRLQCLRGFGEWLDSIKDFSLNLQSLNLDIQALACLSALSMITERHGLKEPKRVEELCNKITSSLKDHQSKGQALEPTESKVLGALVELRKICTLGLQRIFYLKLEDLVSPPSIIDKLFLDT

[2] = target: T2, full-length Nurr1 (Mus musculus, UniProt Q06219); experiment: Luciferase reporter assay, full-length Nurr1, MN9D cells; assay type: cell-based
T2 construct: Luciferase assays using Nurr1-LBD (c) or full-length Nurr1 (d) in SK-N-BE(2)C cells; expressed in transfected cells; host or cells: SK-N-BE(2)C (human neuroblastoma); MN9D (murine dopaminergic)
T2 sequence (Q06219 whole entry, the tested form may be a part): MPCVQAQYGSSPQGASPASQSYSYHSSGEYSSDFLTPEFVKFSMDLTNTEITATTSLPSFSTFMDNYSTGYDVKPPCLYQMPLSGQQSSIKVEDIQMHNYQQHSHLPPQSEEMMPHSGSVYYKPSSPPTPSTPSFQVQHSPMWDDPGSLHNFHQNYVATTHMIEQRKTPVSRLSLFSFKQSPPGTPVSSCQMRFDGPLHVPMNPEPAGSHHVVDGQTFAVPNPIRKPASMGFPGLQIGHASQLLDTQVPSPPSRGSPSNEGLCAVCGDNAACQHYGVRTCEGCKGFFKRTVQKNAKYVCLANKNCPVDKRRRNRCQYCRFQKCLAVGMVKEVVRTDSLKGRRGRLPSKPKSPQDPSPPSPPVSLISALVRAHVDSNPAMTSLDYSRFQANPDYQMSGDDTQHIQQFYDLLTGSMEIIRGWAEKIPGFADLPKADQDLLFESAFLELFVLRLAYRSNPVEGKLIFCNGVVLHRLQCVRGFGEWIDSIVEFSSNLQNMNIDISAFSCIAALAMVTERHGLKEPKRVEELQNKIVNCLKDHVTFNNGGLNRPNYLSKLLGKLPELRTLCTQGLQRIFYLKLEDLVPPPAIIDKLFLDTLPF
From the text: (§1) Nurr1 transactivity was normalized to β-galactosidase activity.

[3] = tested on: AAV-αSyn-induced male mice; experiment: Western blot of human-αSyn in SNpc, AAV-αSyn-injected mice; assay type: in vivo, mouse
Protocol: Experiments were confirmed by duplicate measurements of the same sample. Quantification of immunoreactive bands was performed using ImageJ software (NIH, Bethesda, MD, USA) and expressed as a relative ratio against β-actin.
Adeno-associated viruses (AAVs) expressing GFP only or αSyn (wild-type or A53T) were kindly provided by Dr. Yoon Seong Kim from the University of Central Florida. Recombinant AAV vectors were produced using modified pAAV-IRES-hrGFP (Agilent) to express wild-type and mutant human αSyn under control of the CMV promoter. Viral particles (AAV2) were produced at the University of Iowa Viral Vector Core according to standard operating procedures (https://medicine.uiowa.edu/vectorcore/). Male C57BL/6 mice (8-10 weeks, 25-30 g; Jackson Laboratories) were randomly assigned to 7 groups including empty vector (GFP) + VEH, wild-type αSyn (αSyn^WT) + VEH, mutant αSyn (αSyn^A53T) + VEH, αSyn^WT + CQ, αSyn^A53T + CQ, αSyn^WT + 4A7C-301 and αSyn^A53T + 4A7C-301 (n = 8 per group). AAV vectors were delivered into the substantia nigra unilaterally by stereotaxic surgery. […] CQ (40 mg/kg/day) or 4A7C-301 (5 mg/kg/day) administration was started 4 weeks after AAV vector injections and continued for […] before sacrifice at 8 weeks after surgery.

[4] = target: T3, Nurr1-LBD point mutants (Mus musculus, UniProt Q06219, I573A); experiment: Luciferase assay with point-mutants of Nurr1-LBD, SK-N-BE(2)C cells;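 note: Firefly luciferase normalized to beta-galactosidase activity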; assay type: cell-based; settings: Fig. 1g, I573A
T3 construct: expressed in transfected cells; host or cells: SK-N-BE(2)C
T3 sequence (Q06219 whole entry I573A, the tested form may be a part): as the sequence (Q06219 whole entry, the tested form may be a part) above, with I573A counted along it
Protocol: as §1
(§2) Nurr1 mutants were generated using the QuikChange ǁ XL site-directed mutagenesis kit (Agilent Technologies) according to the manufacturer’s instruction. Mutagenesis reactions were carried out on the plasmid of mouse Nurr1 cloned into pcDNA3.1 backbone, and then verified by sequencing.

[5] = target: T4, Nurr1-LBD point mutants (Mus musculus, UniProt Q06219, L593A); experiment: as above; assay type: cell-based; settings: Fig. 1g, L593A
T4 construct: expressed in transfected cells; host or cells: SK-N-BE(2)C
T4 sequence (Q06219 whole entry L593A, the tested form may be a part): as the sequence (Q06219 whole entry, the tested form may be a part) above, with L593A counted along it
Protocol: as §1, §2

[6] = target: T5, Nurr1-LBD point mutants (Mus musculus, UniProt Q06219, S441A); experiment: as above; assay type: cell-based; settings: Fig. 1g, S441A
T5 construct: expressed in transfected cells; host or cells: SK-N-BE(2)C
T5 sequence (Q06219 whole entry S441A, the tested form may be a part): as the sequence (Q06219 whole entry, the tested form may be a part) above, with S441A counted along it
Protocol: as §1, §2

[7] = target: T6, Nurr1-LBD point mutants (Mus musculus, UniProt Q06219, K590A); experiment: as above; assay type: cell-based; settings: Fig. 1g, K590A
T6 construct: expressed in transfected cells; host or cells: SK-N-BE(2)C
T6 sequence (Q06219 whole entry K590A, the tested form may be a part): as the sequence (Q06219 whole entry, the tested form may be a part) above, with K590A counted along it
Protocol: as §1, §2

[8] = target: T7, Nurr1-LBD point mutants (Mus musculus, UniProt Q06219); experiment: as above; assay type: cell-based; settings: Fig. 1g, WT
T7 construct: expressed in transfected cells; host or cells: SK-N-BE(2)C
T7 sequence (Q06219 whole entry, change not shown, the tested form may be a part): as the sequence (Q06219 whole entry, the tested form may be a part) above
Protocol: as §1, §2

[9] = target: T8, Nurr1-LBD point mutants (Mus musculus, UniProt Q06219, A586F); experiment: as above; assay type: cell-based; settings: Fig. 1g, A586F
T8 construct: expressed in transfected cells; host or cells: SK-N-BE(2)C
T8 sequence (Q06219 whole entry A586F, the tested form may be a part): as the sequence (Q06219 whole entry, the tested form may be a part) above, with A586F counted along it
Protocol: as §1, §2

[10] = target: T9, Nurr1-LBD point mutants (Mus musculus, UniProt Q06219, I588A); experiment: as above; assay type: cell-based; settings: Fig. 1g, I588A
T9 construct: expressed in transfected cells; host or cells: SK-N-BE(2)C
T9 sequence (Q06219 whole entry I588A, the tested form may be a part): as the sequence (Q06219 whole entry, the tested form may be a part) above, with I588A counted along it
Protocol: as §1, §2

Compound: CCN1CCN(c2cc(N3CCN(CC)CC3)nc(NCCNc3ccnc4cc(Cl)ccc34)n2)CC1 [4A7C-301, N^1-(4,6-bis(4-ethylpiperazin-1-yl)pyrimidin-2-yl)-N^2-(7-chloroquinolin-4-yl)ethane-1,2-diamine]
- Luciferase activity (fold), Nor1 [1]: 3.28 fold and 3.108 fold and 3.492 fold
- Luciferase activity (fold) ([2]; Fig. S1e, conc. 1 µM, replicates): 4.17 fold and 4.227 fold and 4.16 fold
- Luciferase activity (fold) ([2]; Fig. S1e, conc. 10 µM, replicates): 4.281 fold and 4.08 fold and 4.219 fold
- Luciferase activity (fold) ([2]; Fig. S1e, conc. 10-1 µM, replicates): 2.744 fold and 2.808 fold and 2.876 fold
- Luciferase activity (fold) ([2]; Fig. S1e, conc. 10-2 µM, replicates): 1.103 fold and 1.099 fold and 1.116 fold
- Luciferase activity (fold) ([2]; Fig. S1e, conc. 10-3 µM, replicates): 1.064 fold and 1.034 fold and 1.025 fold
- Luciferase activity (fold) ([2]; Fig. S3b, 0.001 µM): 1.073 fold and 1.1005 fold and 1.0596 fold
- Luciferase activity (fold) ([2]; Fig. S3b, 0.01 µM): 1.226 fold and 1.227 fold and 1.236 fold
- Luciferase activity (fold) ([2]; Fig. S3b, 0.1 µM): 2.808 fold and 2.776 fold and 2.787 fold
- Luciferase activity (fold) ([2]; Fig. S3b, 1 µM): 4.245 fold and 4.359 fold and 4.273 fold
- Luciferase activity (fold) ([2]; Fig. S3b, 10 µM): 4.295 fold and 4.314 fold and 4.305 fold
- accumulation of αSyn (in words) [3]: significantly diminished
- Luciferase activity (fold) [4]: 1.906 fold and 2.068 fold and 2.015 fold and 1.962 fold
- Luciferase activity (fold) [5]: 5.7 fold and 5.711 fold and 5.709 fold and 5.928 fold
- Luciferase activity (fold) [6]: 8.067 fold and 8.586 fold and 8.69 fold and 8.14 fold
- Luciferase activity (fold) [7]: 9.662 fold and 10.9664 fold and 10.3366 fold and 9.703 fold
- Luciferase activity (fold) [8]: 18.0755 fold and 17.4184 fold and 17.5507 fold and 18.6728 fold
- Luciferase activity (fold) [9]: 16.9378 fold and 18.2618 fold and 17.9787 fold and 16.7737 fold
- Luciferase activity (fold) [10]: 2.735 fold and 2.747 fold and 2.797 fold and 2.7361 fold
